Laboratory results taken from patent US20100062993A1, “Adenosine Nucleotides as Dietary Supplements and as Agents in the Prevention of Cancer and the Metastasis Thereof” (priority 2008, published 2010).

Test system: human cancer cell linings
Experiment: Mice implanted with human cancer (tumor) cell linings: efficacy of MTA relative to SAMe
Assay type: in vivo
Source text: It is therefore astonishing that MTA, in experimental results on mice implanted with tumor cell linings, was 10 times more efficacious than SAMe. Part of the pharmacodynamics is surely that MTA is toxic to many cancer cells that are deficient in the enzymes that are needed to process it. Yet this 10:1 efficacy ratio is inexplicable under the above suppositions!
This is extremely surprising in light of the above!

## CSC[C@H]1O[C@@H](n2cnc3c(N)ncnc32)[C@H](O)[C@@H]1O [MTA, 5-deoxy-5-methylthioadenosine]
Mice implanted with human cancer cell linings, ratio versus SAMe
  efficacy relative to SAMe: more than 10 fold
Mice implanted with tumor cell linings, ratio versus SAMe (10:1)
  efficacy of MTA relative to SAMe (times more efficacious): 10 times
